Measured values: US12692269B2, “Therapeutic compounds” (Genentech, Inc., priority 2019, dated 2026)

Key:
Type in all cases: binding
[1] = target: TEAD1 YAP50-100 (Homo sapiens, UniProt P28347); test: TEAD1-YAP HTRF (TR-FRET) protein-protein interaction assay; settings: TEAD1, YAP peptide 50-100, HTRF; for EC50: read-out: TEAD1 YAP50-100 HTRF combined: EC50
In short: (§1)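 TEAD YBD (aa 217-447, His-tag) + Eu anti-His; cpd 30 min; + biotin-YAP 50-100 or biotin-TAZ 13-57 / SA-XL665; 60 min RT; TR-FRET 665/615; 4-parameter IC50/EC50.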

[2] = target: TEAD2 YAP50-100 (Homo sapiens, UniProt Q15562); test: TEAD2-YAP HTRF (TR-FRET) protein-protein interaction assay; settings: TEAD2, YAP peptide 50-100, HTRF; for EC50: read-out: TEAD2 YAP50-100 HTRF combined: EC50
In short: as §1

[3] = target: TEAD3 YAP50-100 (Homo sapiens, UniProt Q99594); test: TEAD3-YAP HTRF (TR-FRET) protein-protein interaction assay; settings: TEAD3, YAP peptide 50-100, HTRF; for EC50: read-out: TEAD3 YAP50-100 HTRF combined: EC50
In short: as §1

[4] = target: TEAD4 YAP50-100 (Homo sapiens, UniProt Q15561); test: TEAD4-YAP HTRF (TR-FRET) protein-protein interaction assay; settings: TEAD4, YAP peptide 50-100, HTRF; for EC50: read-out: TEAD4 YAP50-100 HTRF combined: EC50
In short: as §1

[5] = target: TEAD1 TAZ (amino acids 13-57) (Homo sapiens, UniProt P28347); test: TEAD1-TAZ HTRF (TR-FRET) protein-protein interaction assay; settings: for TEAD1 TAZ HTRF combined: Max % Inhibition: TEAD1, TAZ peptide; for EC50: TEAD1-TAZ HTRF, TR-FRET 665 nm/615 nm, read-out: TEAD1 TAZ HTRF combined: EC50
In short: as §1

[6] = target: TEAD2 TAZ (amino acids 13-57) (Homo sapiens, UniProt Q15562); test: TEAD2-TAZ HTRF (TR-FRET) protein-protein interaction assay; settings: for TEAD2 TAZ HTRF combined: Max % Inhibition: TEAD2, TAZ peptide; for EC50: TEAD2-TAZ HTRF, TR-FRET 665 nm/615 nm, read-out: TEAD2 TAZ HTRF combined: EC50
In short: as §1

[7] = target: TEAD3 TAZ (amino acids 13-57) (Homo sapiens, UniProt Q99594); test: TEAD3-TAZ HTRF (TR-FRET) protein-protein interaction assay; settings: for TEAD3 TAZ HTRF combined: Max % Inhibition: TEAD3, TAZ peptide; for EC50: TEAD3-TAZ HTRF, TR-FRET 665 nm/615 nm, read-out: TEAD3 TAZ HTRF combined: EC50
In short: as §1

[8] = target: TEAD4 TAZ (amino acids 13-57) (Homo sapiens, UniProt Q15561); test: TEAD4-TAZ HTRF (TR-FRET) protein-protein interaction assay; settings: for TEAD4 TAZ HTRF combined: Max % Inhibition: TEAD4, TAZ peptide; for EC50: TEAD4-TAZ HTRF, TR-FRET 665 nm/615 nm, read-out: TEAD4 TAZ HTRF combined: EC50
In short: as §1

Chain of TEAD3 YAP50-100 (Q99594 173-435 limits assumed): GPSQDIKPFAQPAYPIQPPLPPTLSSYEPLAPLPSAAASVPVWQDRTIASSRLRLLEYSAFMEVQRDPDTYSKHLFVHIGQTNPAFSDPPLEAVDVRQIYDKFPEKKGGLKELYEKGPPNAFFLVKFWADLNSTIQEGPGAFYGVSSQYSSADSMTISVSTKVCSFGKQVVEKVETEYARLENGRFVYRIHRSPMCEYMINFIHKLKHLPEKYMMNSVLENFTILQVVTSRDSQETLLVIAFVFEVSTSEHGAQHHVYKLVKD
Chain of TEAD3 TAZ (amino acids 13-57) (Q99594 173-435 limits assumed): as above
Chain of TEAD2 TAZ (amino acids 13-57) (Q15562 217-447): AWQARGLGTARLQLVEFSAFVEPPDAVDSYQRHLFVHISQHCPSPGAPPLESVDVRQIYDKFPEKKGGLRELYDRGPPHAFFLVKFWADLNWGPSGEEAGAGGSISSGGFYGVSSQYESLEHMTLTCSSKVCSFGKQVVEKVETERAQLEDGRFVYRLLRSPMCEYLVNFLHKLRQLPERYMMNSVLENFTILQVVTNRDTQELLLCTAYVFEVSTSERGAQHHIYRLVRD
Chain of TEAD2 YAP50-100 (Q15562 217-447): as above
Chain of TEAD1 TAZ (amino acids 13-57) (P28347 167-426 limits assumed): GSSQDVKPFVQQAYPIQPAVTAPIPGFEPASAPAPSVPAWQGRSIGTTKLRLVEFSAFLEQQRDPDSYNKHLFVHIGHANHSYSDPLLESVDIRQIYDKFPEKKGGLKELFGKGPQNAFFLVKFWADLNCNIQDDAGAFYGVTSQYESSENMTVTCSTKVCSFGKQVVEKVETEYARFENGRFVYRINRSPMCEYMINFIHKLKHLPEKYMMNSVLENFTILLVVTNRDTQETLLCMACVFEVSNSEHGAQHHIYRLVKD
Chain of TEAD1 YAP50-100 (P28347 167-426 limits assumed): as above
Chain of TEAD4 TAZ (amino acids 13-57) (Q15561 217-434 limits assumed): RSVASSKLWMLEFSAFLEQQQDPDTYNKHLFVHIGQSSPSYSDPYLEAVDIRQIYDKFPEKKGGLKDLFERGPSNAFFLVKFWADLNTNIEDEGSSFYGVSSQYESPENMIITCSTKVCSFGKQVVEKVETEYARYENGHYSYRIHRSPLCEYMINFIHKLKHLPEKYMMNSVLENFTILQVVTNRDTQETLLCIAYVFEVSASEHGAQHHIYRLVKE
Chain of TEAD4 YAP50-100 (Q15561 217-434 limits assumed): as above

Row | SMILES | TEAD1 YAP50-100 HTRF combined: Max % Inhibition [1] | EC50 [1] | TEAD2 YAP50-100 HTRF combined: Max % Inhibition [2] | EC50 [2] | TEAD3 YAP50-100 HTRF combined: Max % Inhibition [3] | EC50 [3] | TEAD4 YAP50-100 HTRF combined: Max % Inhibition [4] | EC50 [4] | TEAD1 TAZ HTRF combined: Max % Inhibition [5] | EC50 [5] | TEAD2 TAZ HTRF combined: Max % Inhibition [6] | EC50 [6] | TEAD3 TAZ HTRF combined: Max % Inhibition [7] | EC50 [7] | TEAD4 TAZ HTRF combined: Max % Inhibition [8] | EC50 [8]
1 | O=C(c1nn2c(=O)cc(-c3ccc(C4CCCCC4)cc3)[nH]c2c1C(=O)N1CC(CF)C1)N1CCCC1 [Compound 36, 5-(4-Cyclohexylphenyl)-3-(3-(fluoromethyl)azetidine-1-carbonyl)-2-(pyrrolidine-1-carbonyl)pyrazolo[1,5-a]pyrimidin-7(4H)-one] | 70.0% | 70 nM | 73.5% | 20 nM | 71.0% | 180 nM | 48.0% | 1020 nM | 60.5% | 80 nM | 73.5% | 20 nM | 60.0% | 200 nM | 38.0% | 850 nM
2 | O=C(c1c(-c2cccnc2)nn2c(=O)cc(-c3ccc(C4CCCCC4)cc3)[nH]c12)N1CC(CF)C1 [Compound 37, 5-(4-Cyclohexylphenyl)-3-(3-(fluoromethyl)azetidine-1-carbonyl)-2-(pyridin-3-yl)pyrazolo[1,5-a]pyrimidin-7(4H)-one] | 66.0% | 100 nM | 54.5% | 20 nM | 64.0% | 150 nM | 27.5% | 220 nM | 50.0% | 120 nM | 50.0% | 20 nM | 55.0% | 150 nM | 16.5% | 160 nM
3 | O=C(c1c(-c2ccccc2)nn2c(=O)cc(-c3ccc(C4CCCCC4)cc3)[nH]c12)N1CC(CF)C1 [Compound 38, 5-(4-Cyclohexylphenyl)-3-(3-(fluoromethyl)azetidine-1-carbonyl)-2-phenylpyrazolo[1,5-a]pyrimidin-7(4H)-one] | 64.0% | 210 nM | 61.5% | 30 nM | 65.0% | 220 nM | 41.0% | 200 nM | 47.5% | 220 nM | 64.0% | 20 nM | 61.0% | 250 nM | 37.5% | 130 nM
4 | O=C(c1c(-c2cnco2)nn2c(=O)cc(-c3ccc(C4CCCCC4)cc3)[nH]c12)N1CC(CF)C1 [Compound 39, 5-(4-Cyclohexylphenyl)-3-(3-(fluoromethyl)azetidine-1-carbonyl)-2-(oxazol-5-yl)pyrazolo[1,5-a]pyrimidin-7(4H)-one] | 65.0% | 50 nM | 62.0% | 20 nM | 61.5% | 60 nM | 34.5% | 650 nM | 37.5% | 90 nM | 56.5% | 20 nM | 53.5% | 60 nM | 18.0% | 370 nM
5 | CC(C)c1ccc(COc2cc(=O)n3nc(-c4cnccn4)c(C(=O)N4CC(CF)C4)c3[nH]2)cc1 [Compound 52, 3-(3-(Fluoromethyl)azetidine-1-carbonyl)-5-((4-isopropylbenzyl)oxy)-2-(pyrazin-2-yl)pyrazolo[1,5-a]primidin-7(4H)-one] | 70.0% | 50 nM | 68.0% | 20 nM | 57.0% | 150 nM | 66.0% | 180 nM | 62.0% | 60 nM | 69.0% | 20 nM | 48.0% | 180 nM | 58.0% | 150 nM
6 | CC(C)(C)c1ccc(COc2cc(=O)n3nc(-c4cnccn4)c(C(=O)N4CC(CF)C4)c3[nH]2)cc1 [Compound 53, 5-((4-(Tert-butyl)benzyl)oxy)-3-(3-(fluoromethyl)azetidine-1-carbonyl)-2-(pyrazin-2-yl)pyrazolo[1,5-a]pyrimidin-7(4H)-one] | 72.0% | 50 nM | 64.5% | 20 nM | 58.5% | 110 nM | 65.5% | 50 nM | 62.5% | 70 nM | 67.0% | 20 nM | 46.0% | 90 nM | 51.5% | 30 nM
7 | CC(C)(C)c1ccc(COc2cc(=O)n3nc(-c4ncccn4)c(C(=O)N4CC(CF)C4)c3[nH]2)cc1 [Compound 54, 5-((4-(Tert-butyl)benzyl)oxy)-3-(3-(fluoromethyl)azetidine-1-carbonyl)-2-(pyrimidin-2-yl)pyrazolo[1,5-a]pyrimidin-7(4H)-one] | 71.0% | 50 nM | 59.0% | 20 nM | 56.5% | 80 nM | 60.5% | 40 nM | 63.0% | 70 nM | 59.5% | 20 nM | 45.0% | 90 nM | 56.0% | 40 nM
